# Read-outs that look alike come from different tables or passages of the source.
# Key:
# Human NMT1 (HsNMT1) = Human NMT1 (HsNMT1) (Homo sapiens, UniProt P30419); assay: biochemical
# [1] = tested on: Plasmodium falciparum strain NF54; assay: SYBR Green assay, Plasmodium falciparum strain NF54; details: NF54, read-out: Pf EC50 strain NF54
# Method: EC50 values for Plasmodium falciparum (Pf) NMT strain 3D7 or NF54 were measured for certain compounds of the invention using an assay utilising SYBR Green dye. The assay for NMT strain 3D7 was carried out as follows:
# A similar protocol was used to determine activity against Plasmodium falciparum strain NF54.
# [2] = target: Plasmodium vivax (Pv) NMT (Plasmodium vivax (strain Salvador I), UniProt A5K1A2); assay: biochemical
# [3] = Rat clearance and bioavailability (iv and oral dosing); format: in vivo; details: male, Sprague-Dawley, plasma; for half-life: read-out: Rat iv t1/2 (converted)
# in vitro = details: male, Sprague-Dawley, rat, pooled cryopreserved rat hepatocytes, pH 7.4
# Method: Assay (e): Rat Hepatocyte Half Life
# Certain example compound of the present invention were tested for metabolic stability in rat metabolic assays using hepatocytes derived from pooled male Sprague-Dawley rats.
# Frozen pooled rat hepatocytes obtained from LifeTechnologies were thawed and purified according to the manufacturer's instructions. The test compound (4 mM) in DMSO was diluted with acetonitrile to provide a 100 μM sub-stock then further diluted with pH 7.4 Krebs-Henseleit buffer (supplemented with CaCl2, NaHCO3, HEPES, fructose and glycine) to provide a 2 μM working solution. 25 μL of working solution was incubated at 37° C., treated with 25 μL of rat hepatocyte suspension (containing 1×10^6 cells/mL) and incubated at 37° C. with 5% CO2 level at 95% relative humidity. Wells were incubated for an appropriate time (0, 15, 30, 45, 60 and 75 min) then quenched with 250 μL of acetonitrile containing reference standards diltiazem, 7-ethoxycoumarin and propranolol). The plates were shaken, sonicated for 5 min then cooled to 4° C. until all sampling was complete. All plates were centrifuged at 4000 rpm for 20 min to pellet the debris. 110 μL supernatant was diluted 110 μL water and quantitated using LC-MS/MS.
# A linear regression curve was fitted to a plot of natural logarithm (In) of AUC against time. The T-half (min)=0.693/slope
# [4] = tested on: Plasmodium falciparum 3D7; assay: SYBR Green assay, Plasmodium falciparum strain 3D7; format: cell-based; details: P. falciparum strain 3D7, 96 h incubation, read-out: Pf EC50 strain 3D7
# BL-41 cells = assay: Metabolic activity assay (MTS assay) in BL-41 cell line; format: cell-based; details: Homo sapiens, 72 h
# Method: Assay (b): Metabolic Activity Assay (MTS Assay)
# BL-41 cells (obtained from Cell Services at the Crick Institute; cell type: Burkitt's Lymphoma) were grown in DMEM media (supplemented with 10% FBS) and were seeded in a 96-well plate, 24 h prior to treatment. Cell suspensions were prepared by adjusting the cell density to the appropriate concentration (as stated in the Table 7 below) and 50 μL of the cell suspension was transferred to wells B-G in columns 2-11 of a 96-well plate.
# Seven concentrations of NMT inhibitor stock solution were prepared for each Example Compound tested (the seven concentrations were prepared as follows: 400 μL 0.2% DMSO in DMEM was added to columns 2-7 of a 96 deep well plate; 598 μL DMEM (no DMSO) was added to column 1; 1.8 μL of drug stock (50 mM in DMSO) was added to column 1 and thoroughly mixed with a 1000 μL pipette; serial dilution was performed with 200 μL from column 1 until column 7). 100 μL of Example Compound stock solution was added to wells B-G in columns 4-10 of a 96-well plate (final concentration of Example Compound in the plate starting from 10 μM or 100 μM; total volume in each well was 150 μL). The plate was incubated at 37° C. with 5% CO2 level.
# After 72 h, 20 μL MTS reagent (G3580, prepared as follows: 200 μL of phenazine methosulfate (PMS) solution was added to 4 ml 3-(4,5-dimethylthiazol-2-yl)-5-(3-carboxymethoxyphenyl)-2-(4-sulfophenyl)-2H-tetrazolium inner salt (MTS) solution (16 mg in 10 ml PBS) and mix thoroughly) was added to each well of the 96-well plate. […] The average absorbance value of the negative control (Puromycin-treated cells) was subtracted from each value and the metabolic activity was calculated as a percentage relative to the positive control (DMSO-treated cells). EC50 values were calculated using GraphPad.
# P-493-6 cell line = assay: CellTiter-Blue assay, P-493-6 with low, medium or high c-Myc; format: cell-based, human; details: 72 hours, different expression levels of c-Myc induced
# From the text: Assay (d): CellTiter-Blue® Assay
# Shep-ER-N-Myc cell line (cell type: human neuroblastoma) was sourced from Linda Valentijn, and firstly reported in Valentijn et. al., Cancer Res, 2005, 65(8), 3136-3145. SKNAS-ER-N-Myc cell line (cell type: human neuroblastoma) was sourced from Michael D. Hogarty, and firstly reported in Ushmorov et al., Oncogene, 2008, 27(24), 3424-3434. P-493-6 cell line was sourced from Chi Van Dang, and firstly reported in Pajic et. al., Int J Cancer, 2000, 87(6), 787-793. P-493-6 cell line is a non-transformed B cell line that can be genetically engineered to have either “low” levels of c-Myc, “medium” levels of c-Myc or “high” levels of c-Myc. The terms “low”, “medium” and “high” are descriptors commonly used in the art and will be readily understood to mean: • i) “low” levels of c-Myc—a level of MYC expression which represents non-proliferating normal cells (i.e. a level of MYC expression not sufficient to cause the cycling of the cells); • ii) “medium” levels of c-Myc—a level of MYC expression which represents normal proliferating cells; and • iii) “high” levels of c-Myc—a level of MYC expression which represents enforced/deregulated expression of c-Myc, typically observed in cancerous cells. […]
# SU-DHL-10 cells = assay: Cell cytotoxicity in SU-DHL-10 cell line (CellTiter-Glo); format: cell-based; details: Homo sapiens, SU-DHL10; CellTiter-Glo, 48 h; read-out: SU-DHL-10 EC50
# Method: Assay (c): Cell Cytotoxicity in SU-DHL-10 Cell Line
# Cell Culture: SU-DHL-10 (ATCC CRL-2963) were cultured in RPMI-media (ATCC, 30-2001).
# Cultures were maintained by the addition of fresh medium and inoculum of 8.0×10^4 to 2.0×10^5 cells/mL. Subculturing was done when the cell density was between 1.0×10^6 and 2.0×10^6 cells/mL.
# Cell seeding: 5000 cells/well were plated in 384-white clear bottom plates (Greiner, 781098) for the assay in 20 μl growth media.
# Top dose: 1 mM stocks of each compound was prepared in 100% DMSO and thereafter diluted 333.33 fold in growth media to obtain 3 μM (0.3% DMSO) mid stock of each compound, from which 10 μl was added to assay wells (with 20 μl cells) for a final concentration of 1 μM (0.1% DMSO). For subsequent dose-response: 1 mM stock was diluted 3 fold in DMSO before subjecting to above dilution pattern to obtain final 0.1% DMSO concentration.
# Treatment: Cells were incubated with the compounds for 48 h at 37° C. in presence of 5% CO2.
# Assay Procedure: The assay plate and its contents were equilibrated at room temperature for approximately 30 minutes. CellTiter-Glo® Reagent was added equal to the volume (1;1) of cell culture medium present in each well. The contents were mixed for 5 minutes on an orbital shaker to induce cell lysis. The plate was allowed to incubate at room temperature for 10 minutes to stabilize luminescent signal. The luminescence was recorded with an integration time of 0.25 seconds in EnVision 2104 Multilabel Plate Reader (Perkin Elmer).
# Calculation: % Cytotoxicity was calculated considering 100% cell death in wells treated with 0.1% TritonX.
# DOHH-2 tumor cells = assay: Mouse xenograft, subcutaneous DOHH-2 Lymphoma Model; format: in vivo; details: intraperitoneally 25 mg/kg twice a day for three days then four day no-dosing, cycle repeated three times, compared to vehicle
# Method: Assay (i): Mouse Xenograft Protocol
# The in vivo efficacy was assess in a subcutaneous xenograft DOHH-2 Lymphoma Model using Female 6-8 week old CB17/SCID Mice. […] The test compound administration started once the mean tumor size reached approximately 100-150 mm3. Compounds were administered either IP (vehicle 58% Na2HPO4 buffer (10 mM) (pH4.5)+40% PEG400+2% DMSO) or orally (vehicle Na2HPO4 buffer (10 mM) (pH 4.5)+0.2% tween 80). Tumor volumes were measured in two dimensions using a caliper, and the volume expressed in mm3 using the formula: V=(L×W×W)/2, where V is tumor volume, L is tumor length (the longest tumor dimension) and W is tumor width (the longest tumor dimension perpendicular to L).
# Mice were dosed with Example 2 orally (50 mg/kg) once a day for 9 consecutive days (FIG. 5a), or Example 2 was dosed intraperitonally (25 mg/kg) in a cycle consisting of administration twice a day for three days followed by a four day no-dosing period (FIG. 5b). The cycle was repeated three times.
# Mice were dosed with Example 129 intraperitonally (25 mg/kg) in a cycle consisting of administration twice a day for three days followed by a four day no-dosing period (Figure Sc). The cycle was repeated three times.
# The protocol and any amendment(s) or procedures involving the care and use of animals in this study were reviewed and approved by the Institutional Animal Care and Use Committee (IACUC) of CrownBio prior to execution. During the study, the care and use of animals was conducted in accordance with the regulations of the Association for Assessment and Accreditation of Laboratory Animal Care (AAALAC).
# [5] = iv 1 mg/kg, cassette dosing of 4 compounds
# [6] = oral 5 mg/kg, cassette dosing of 4 compounds
# [7] = iv 3 mg/kg, administered as a single compound
# [8] = oral 30 mg/kg, administered as a single compound
# Sequence of Human NMT1 (HsNMT1) (P30419 whole entry, looked up): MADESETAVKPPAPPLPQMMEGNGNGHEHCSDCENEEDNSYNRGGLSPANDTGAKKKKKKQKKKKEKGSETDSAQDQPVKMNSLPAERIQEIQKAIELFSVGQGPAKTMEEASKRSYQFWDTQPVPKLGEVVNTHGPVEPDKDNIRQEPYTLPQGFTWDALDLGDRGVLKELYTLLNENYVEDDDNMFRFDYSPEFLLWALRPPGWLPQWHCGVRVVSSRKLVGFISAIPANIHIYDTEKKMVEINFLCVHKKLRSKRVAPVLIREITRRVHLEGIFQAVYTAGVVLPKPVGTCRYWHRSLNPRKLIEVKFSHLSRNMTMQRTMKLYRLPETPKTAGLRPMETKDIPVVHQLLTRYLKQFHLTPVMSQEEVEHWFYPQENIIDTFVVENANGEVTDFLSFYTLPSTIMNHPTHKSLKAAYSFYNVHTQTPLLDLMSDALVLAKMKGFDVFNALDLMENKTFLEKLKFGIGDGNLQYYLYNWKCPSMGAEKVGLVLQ
# Sequence of Plasmodium vivax (Pv) NMT (A5K1A2 1-410): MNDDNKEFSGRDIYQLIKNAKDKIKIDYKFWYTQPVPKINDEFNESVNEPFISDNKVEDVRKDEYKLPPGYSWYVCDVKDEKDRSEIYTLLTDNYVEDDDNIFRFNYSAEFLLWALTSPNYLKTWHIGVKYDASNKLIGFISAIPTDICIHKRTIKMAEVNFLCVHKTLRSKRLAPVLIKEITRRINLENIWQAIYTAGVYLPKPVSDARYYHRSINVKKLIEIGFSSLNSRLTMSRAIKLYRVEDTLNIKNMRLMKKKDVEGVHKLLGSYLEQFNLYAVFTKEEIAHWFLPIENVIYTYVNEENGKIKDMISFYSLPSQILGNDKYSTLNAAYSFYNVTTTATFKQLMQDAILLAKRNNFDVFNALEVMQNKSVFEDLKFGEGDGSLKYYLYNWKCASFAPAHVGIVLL
SMILES,IC50 (Human NMT1 (HsNMT1)) [µM],EC50 [1] [µM],IC50 [2] [µM],EC50 [4] [µM],EC50 (BL-41 cells) [µM],further results
CC(NC(=O)C1CN(c2nc(N3CCCNCC3)ncc2F)C1)c1cnc2ccccn12 (centres unmarked) [Example 9],0.079,2.1,0.041,–,–,–
CN1CCN(c2ncc(Cl)c(N3CC(C(=O)NC(C)(C)c4cnc5ccccn45)C3)n2)CC1 [Example 55],–,–,0.0044,0.064,1.07,"half-life [3, 5]: 3.1 h; bioavailability [3, 6]: 38%; half-life at 1 µM (in vitro): 2.33 h"
Cc1nc2ccccn2c1CNC(=O)C1CN(c2nc(N3CCCNCC3)ncc2F)C1 [Example 12],0.13,> 2.5,0.2,–,–,–
CC(C)(NC(=O)C1CN(c2nc(N3CCCNCC3)ncc2Cl)C1)c1cnc2ccccn12 [Example 51],–,–,0.0053,0.028,0.08,"half-life [3, 7]: 9.1 h; bioavailability [3, 8]: 0.07%"
C[C@H]1CN(C)CCN1c1ncc(Cl)c(N2CC(C(=O)NC(C)(C)c3cnc4ccccn34)C2)n1 [Example compound 2],–,–,–,–,–,metabolic viability of the P-493-6 cell line (P-493-6 cell line): clear MYC-dependent loss in metabolic viability
CN1CCCN(c2ncc(Cl)c(N3CC(C(=O)NC(C)(C)c4cnc5ccccn45)C3)n2)CC1 [Example 57],0.0035,–,0.0022,0.049,1.25,"half-life [3, 5]: 6.6 h; bioavailability [3, 6]: 6%; half-life at 1 µM (in vitro): 2.52 h; EC50 (SU-DHL-10 cells): 0.203 µM"
CN(Cc1cnc2ccccn12)C(=O)C1CN(c2nc(N3CCCNCC3)ncc2Cl)C1 [Example 17],0.36,> 5,0.14,–,–,–
COc1cnc(N2CCCNCC2)nc1N1CC(C(=O)NC(C)c2c(C)nc3ccccn23)C1 (centres unmarked) [Example 23],0.027,0.34,0.03,–,–,–
COc1cnc(N2CCCNCC2)nc1N1CC(C(=O)NC(C)(C)c2cnc3ccccn23)C1 [Example 20],0.016,–,0.016,0.15,1.16,–
O=C(NCc1cnc2ccccn12)C1CN(c2nc(N3CC4CNC4C3)ncc2Cl)C1 (centres unmarked) [Example 7],0.11,3.2,0.04,–,–,–
Cc1nc2ccccn2c1C(C)NC(=O)C1CN(c2nc(N3CCCNCC3)ncc2Cl)C1 (centres unmarked) [Example 24],0.0063,0.18,0.012,–,–,–
CN1CCCN(c2ncc(Cl)c(N3CC(C(=O)NCc4cnc5ccccn45)C3)n2)CC1 [Example 53],–,0.26,0.0058,–,–,half-life at 1 µM (in vitro): 0.4 h
Cc1nc2ccccn2c1CNC(=O)C1CN(c2nc(N3CCCNCC3)ncc2Cl)C1 [Example 18],0.02,2.7,0.0088,–,–,–
CC(C)(NC(=O)C1CN(c2nc(N3CCCNCC3)ncc2F)C1)c1cnc2ccccn12 [Example 11],–,–,0.014,0.051,0.89,"half-life [3, 7]: 4.4 h; bioavailability [3, 8]: 0.35%"
CC(NC(=O)C1CN(c2nc(N3CCCNCC3)ncc2Cl)C1)c1cnc2ccccn12 (centres unmarked) [Example 10],0.0079,–,0.0063,0.51,0.24,half-life at 1 µM (in vitro): 2.03 h
CN(c1ncc(Cl)c(N2CC(C(=O)NC(C)(C)c3cnc4ccccn34)C2)n1)C1CCNC1 (centres unmarked) [Example 41],0.019,0.045,0.0072,–,–,–
Cc1nc2ccccn2c1CNC(=O)C1CN(c2nc(N3CC4CNC4C3)ncc2F)C1 (centres unmarked) [Example 13],0.38,> 10,0.66,–,–,–
"C[C@H]1CNCCN1c1ncc(Cl)c(N2CC(C(=O)NC(C)(C)c3cnc4ccccn34)C2)n1 [Example 129, (S)-1-(5-chloro-2-(2-methylpiperazin-1-yl)pyrimidin-4-yl)-N-(2-(imidazo[1,2-a]pyridin-3-yl)propan-2-yl)azetidine-3-carboxamide]",0.002,–,–,–,–,tumour volume (DOHH-2 tumor cells): significant decrease in tumour volume; EC50 (SU-DHL-10 cells): 0.006 µM
O=C(NCc1cnc2ccccn12)C1CN(c2nc(N3CC4CNC4C3)ncc2F)C1 (centres unmarked) [Example 8],1.02,> 10,0.47,–,–,–
CN1CCN(c2ncc(F)c(N3CC(C(=O)NC(C)(C)c4cnc5ccccn45)C3)n2)CC1 [Example 54],–,–,0.0062,0.16,2.31,"half-life [3, 5]: 3.5 h; bioavailability [3, 6]: 33%; half-life at 1 µM (in vitro): > 3 h"
O=C(NCc1cnc2ccccn12)C1CN(c2nc(N3CCNCC3)ncc2F)C1 [Example 16],–,> 5,0.068,–,–,"half-life [3, 7]: 5.9 h; bioavailability [3, 8]: 0.5%; half-life at 1 µM (in vitro): > 6.25 h"
CC1CN(c2ncc(F)c(N3CC(C(=O)NCc4cnc5ccccn45)C3)n2)CCN1 (centres unmarked) [Example 28],–,3.04,0.095,–,–,–
CC(NC(=O)C1CN(c2nc(N3CCNCC3)ncc2F)C1)c1cnc2ccccn12 (centres unmarked) [Example 31],0.18,1.3,0.019,–,–,–

# From US20240166643A1, “IMIDAZO[1,2-A]PYRIDINE COMPOUNDS AND THEIR USE IN THERAPY” (Imperial College Innovations Limited, priority 2020, published 2024)
